Assay: xn = mol fraction of the nth substance listed
Conditions: Liquid, Vibrating tube method

COc1cc2c(cc1O)CC1c3c(cc(O)c(OC)c3-2)CCN1C (stereo not given) [boldine] + CCCO
Conditions	mass density [kg/m3]
343 K, 1000 kPa, x1 = 0.0018	765.31
343 K, 2000 kPa, x1 = 0.0018	766.28
343 K, 3000 kPa, x1 = 0.0018	767.25
343 K, 4000 kPa, x1 = 0.0018	768.23
343 K, 5000 kPa, x1 = 0.0018	769.21
343 K, 6000 kPa, x1 = 0.0018	770.18
343 K, 7000 kPa, x1 = 0.0018	771.15
343 K, 8000 kPa, x1 = 0.0018	772.11
343 K, 9000 kPa, x1 = 0.0018	773.07
343 K, 10000 kPa, x1 = 0.0018	774.02
343 K, 11000 kPa, x1 = 0.0018	774.96
343 K, 12000 kPa, x1 = 0.0018	775.89
343 K, 13000 kPa, x1 = 0.0018	776.81
343 K, 14000 kPa, x1 = 0.0018	777.73
343 K, 15000 kPa, x1 = 0.0018	778.63
343 K, 16000 kPa, x1 = 0.0018	779.51
343 K, 17000 kPa, x1 = 0.0018	780.4
343 K, 18000 kPa, x1 = 0.0018	781.25
343 K, 19000 kPa, x1 = 0.0018	782.1
343 K, 20000 kPa, x1 = 0.0018	782.93
343.01 K, 1000 kPa, x1 = 0.0077	775.45
343.01 K, 1000 kPa, x1 = 0.0142	786.8
343.01 K, 2000 kPa, x1 = 0.0077	776.42
343.01 K, 2000 kPa, x1 = 0.0142	787.75
343.01 K, 3000 kPa, x1 = 0.0077	777.38
343.01 K, 3000 kPa, x1 = 0.0142	788.7
343.01 K, 4000 kPa, x1 = 0.0077	778.34
343.01 K, 4000 kPa, x1 = 0.0142	789.64
343.01 K, 5000 kPa, x1 = 0.0077	779.31
343.01 K, 5000 kPa, x1 = 0.0142	790.58
343.01 K, 6000 kPa, x1 = 0.0077	780.26
343.01 K, 6000 kPa, x1 = 0.0142	791.54
343.01 K, 7000 kPa, x1 = 0.0077	781.23
343.01 K, 7000 kPa, x1 = 0.0142	792.46
343.01 K, 8000 kPa, x1 = 0.0077	782.18
343.01 K, 8000 kPa, x1 = 0.0142	793.4
343.01 K, 9000 kPa, x1 = 0.0077	783.12
343.01 K, 9000 kPa, x1 = 0.0142	794.32
343.01 K, 10000 kPa, x1 = 0.0077	784.05
343.01 K, 10000 kPa, x1 = 0.0142	795.24
343.01 K, 11000 kPa, x1 = 0.0077	784.98
343.01 K, 11000 kPa, x1 = 0.0142	796.17
343.01 K, 12000 kPa, x1 = 0.0077	785.91
343.01 K, 12000 kPa, x1 = 0.0142	797.07
343.01 K, 13000 kPa, x1 = 0.0077	786.82
343.01 K, 13000 kPa, x1 = 0.0142	797.96
343.01 K, 14000 kPa, x1 = 0.0077	787.72
343.01 K, 14000 kPa, x1 = 0.0142	798.86
343.01 K, 15000 kPa, x1 = 0.0077	788.61
343.01 K, 15000 kPa, x1 = 0.0142	799.72
343.01 K, 16000 kPa, x1 = 0.0077	789.48
343.01 K, 16000 kPa, x1 = 0.0142	800.59
343.01 K, 17000 kPa, x1 = 0.0077	790.35
343.01 K, 17000 kPa, x1 = 0.0142	801.44
343.01 K, 18000 kPa, x1 = 0.0077	791.2
343.01 K, 18000 kPa, x1 = 0.0142	802.3
343.01 K, 19000 kPa, x1 = 0.0077	792.04
343.01 K, 19000 kPa, x1 = 0.0142	803.11
343.01 K, 20000 kPa, x1 = 0.0077	792.86
343.01 K, 20000 kPa, x1 = 0.0142	803.92
343.02 K, 1000 kPa, x1 = 0.0112	782.08
343.02 K, 2000 kPa, x1 = 0.0112	783.03
343.02 K, 3000 kPa, x1 = 0.0112	783.98
343.02 K, 4000 kPa, x1 = 0.0112	784.93
343.02 K, 5000 kPa, x1 = 0.0112	785.88
343.02 K, 6000 kPa, x1 = 0.0112	786.83
343.02 K, 7000 kPa, x1 = 0.0112	787.77
343.02 K, 8000 kPa, x1 = 0.0112	788.71
343.02 K, 9000 kPa, x1 = 0.0112	789.64
343.02 K, 10000 kPa, x1 = 0.0112	790.57
343.02 K, 11000 kPa, x1 = 0.0112	791.49
343.02 K, 12000 kPa, x1 = 0.0112	792.4
343.02 K, 13000 kPa, x1 = 0.0112	793.29
343.02 K, 14000 kPa, x1 = 0.0112	794.19
343.02 K, 15000 kPa, x1 = 0.0112	795.06
